± gives the expanded uncertainty stated by the source.
Experiment: an = ratio of the nth substance listed, in mol/kg
Details: 298.15 K, 101 kPa, Liquid; for speed of sound: Sing-around technique in a fixed-path interferometer; for mass density: Vibrating tube method

[Cl][Mn][Cl] [manganese chloride] + CC(=O)N(C)C
Details | mass density [kg/m3] | speed of sound [m/s]
a1 = 0.05753 | 942.406 ± 0.25 | 1458.5 ± 1.2
a1 = 0.1146 | 948.611 ± 0.25 | 1461.2 ± 1.2
a1 = 0.1691 | 954.924 ± 0.25 | 1463.8 ± 1.2
a1 = 0.222 | 961.136 ± 0.25 | 1466.5 ± 1.2
a1 = 0.2756 | 967.302 ± 0.25 | 1469.4 ± 1.2
a1 = 0.3266 | 973.327 ± 0.24 | 1472.2 ± 1.2
a1 = 0.3813 | 979.1 ± 0.24 | 1475.5 ± 1.2
a1 = 0.433 | 984.866 ± 0.24 | 1478.6 ± 1.2

C[S+](C)[O-] [dimethyl sulfoxide] + [Cu+2].[O-][Cl+3]([O-])([O-])[O-].[O-][Cl+3]([O-])([O-])[O-]
a2 = 0
Details | mass density [kg/m3] | speed of sound [m/s]
– | 1095.2 ± 0.38 | 1484.1 ± 1.2

CC(=O)N(C)C [N,N-dimethylethanamide] + [Mn+2].[O-][Cl+3]([O-])([O-])[O-].[O-][Cl+3]([O-])([O-])[O-]
a2 = 0
Details | mass density [kg/m3] | speed of sound [m/s]
– | 936.213 ± 0.31 | 1455.4 ± 1.2

[Cl][Co][Cl] [cobalt chloride] + CC(=O)N(C)C
Details | mass density [kg/m3] | speed of sound [m/s]
a1 = 0.02558 | 938.7 ± 0.25 | 1456.5 ± 1.2
a1 = 0.05173 | 941.28 ± 0.25 | 1457.3 ± 1.2
a1 = 0.07676 | 943.75 ± 0.25 | 1458 ± 1.2
a1 = 0.1024 | 946.279 ± 0.24 | 1458.9 ± 1.2
a1 = 0.1289 | 948.892 ± 0.24 | 1459.8 ± 1.2
a1 = 0.1539 | 951.355 ± 0.24 | 1460.7 ± 1.2
a1 = 0.181 | 954.035 ± 0.24 | 1461.6 ± 1.2
a1 = 0.2056 | 956.46 ± 0.24 | 1462.6 ± 1.2

CC(=O)N(C)C [N,N-dimethylethanamide] + [O-][Cl+3]([O-])([O-])[O-].[O-][Cl+3]([O-])([O-])[O-].[Zn+2]
a2 = 0
Details | mass density [kg/m3] | speed of sound [m/s]
– | 936.15 ± 0.31 | 1455.4 ± 1.2

[O-][Cl+3]([O-])([O-])[O-].[O-][Cl+3]([O-])([O-])[O-].[Zn+2] [zinc perchlorate] + C[S+](C)[O-]
Details | mass density [kg/m3] | speed of sound [m/s]
a1 = 0.02918 | 1101.58 ± 0.38 | 1485.7 ± 1.2
a1 = 0.03465 | 1102.78 ± 0.38 | 1486 ± 1.2
a1 = 0.05104 | 1106.39 ± 0.38 | 1486.9 ± 1.2
a1 = 0.06794 | 1110.13 ± 0.38 | 1487.8 ± 1.2
a1 = 0.08574 | 1114.1 ± 0.38 | 1488.8 ± 1.2
a1 = 0.1022 | 1117.8 ± 0.39 | 1489.7 ± 1.2
a1 = 0.119 | 1121.58 ± 0.39 | 1490.7 ± 1.2
a1 = 0.1435 | 1127.14 ± 0.39 | 1492.2 ± 1.2
a1 = 0.1685 | 1132.85 ± 0.39 | 1493.7 ± 1.2

[O-][Cl+3]([O-])([O-])[O-].[O-][Cl+3]([O-])([O-])[O-].[Zn+2] [zinc perchlorate] + CC(=O)N(C)C
Details | mass density [kg/m3] | speed of sound [m/s]
a1 = 0.04286 | 945.119 ± 0.31 | 1460.8 ± 1.2
a1 = 0.08313 | 954.115 ± 0.32 | 1464.9 ± 1.2
a1 = 0.1231 | 963.055 ± 0.31 | 1469 ± 1.2
a1 = 0.1625 | 971.852 ± 0.31 | 1473.2 ± 1.2
a1 = 0.2013 | 980.513 ± 0.31 | 1477.5 ± 1.2
a1 = 0.2396 | 989.07 ± 0.3 | 1481.9 ± 1.2
a1 = 0.2771 | 997.457 ± 0.3 | 1486.3 ± 1.2
a1 = 0.3148 | 1005.87 ± 0.3 | 1490.8 ± 1.2

CC(=O)N(C)C [N,N-dimethylethanamide] + [Cu+2].[O-][Cl+3]([O-])([O-])[O-].[O-][Cl+3]([O-])([O-])[O-]
a2 = 0
Details | mass density [kg/m3] | speed of sound [m/s]
– | 936.11 ± 0.32 | 1455.4 ± 1.2

C[S+](C)[O-] [dimethyl sulfoxide] + [O-][Cl+3]([O-])([O-])[O-].[O-][Cl+3]([O-])([O-])[O-].[Zn+2]
a2 = 0
Details | mass density [kg/m3] | speed of sound [m/s]
– | 1095.2 ± 0.38 | 1484.1 ± 1.2

C[S+](C)[O-] [dimethyl sulfoxide] + [Cl][Co][Cl]
a2 = 0
Details | mass density [kg/m3] | speed of sound [m/s]
– | 1095.19 ± 0.32 | 1484.1 ± 1.2

[Cu+2].[O-][Cl+3]([O-])([O-])[O-].[O-][Cl+3]([O-])([O-])[O-] [copper perchlorate] + CC(=O)N(C)C
Details | mass density [kg/m3] | speed of sound [m/s]
a1 = 0.06523 | 950.245 ± 0.31 | 1463.1 ± 1.2
a1 = 0.09641 | 957.338 ± 0.32 | 1466.4 ± 1.2
a1 = 0.1434 | 968.019 ± 0.31 | 1471.3 ± 1.2
a1 = 0.1894 | 978.49 ± 0.31 | 1476.5 ± 1.2
a1 = 0.2336 | 988.543 ± 0.31 | 1481.5 ± 1.2
a1 = 0.2774 | 998.499 ± 0.31 | 1486.9 ± 1.2
a1 = 0.3204 | 1008.3 ± 0.31 | 1492.2 ± 1.2
a1 = 0.364 | 1018.21 ± 0.31 | 1498.1 ± 1.2

[Cl][Cu][Cl] [copper chloride] + CC(=O)N(C)C
Details | mass density [kg/m3] | speed of sound [m/s]
a1 = 0.04793 | 941.347 ± 0.25 | 1456.2 ± 1.2
a1 = 0.09502 | 946.26 ± 0.25 | 1457.1 ± 1.2
a1 = 0.139 | 950.849 ± 0.25 | 1458 ± 1.2
a1 = 0.1852 | 955.662 ± 0.24 | 1458.9 ± 1.2
a1 = 0.2306 | 960.406 ± 0.24 | 1459.9 ± 1.2
a1 = 0.2755 | 965.086 ± 0.24 | 1460.9 ± 1.2
a1 = 0.3194 | 969.661 ± 0.24 | 1461.9 ± 1.2
a1 = 0.364 | 974.319 ± 0.24 | 1462.9 ± 1.2

CC(=O)N(C)C [N,N-dimethylethanamide] + [Co+2].[O-][Cl+3]([O-])([O-])[O-].[O-][Cl+3]([O-])([O-])[O-]
a2 = 0
Details | mass density [kg/m3] | speed of sound [m/s]
– | 936.233 ± 0.32 | 1455.4 ± 1.2

[Cl][Ni][Cl] [nickel chloride (NiCl2)] + C[S+](C)[O-]
Details | mass density [kg/m3] | speed of sound [m/s]
a1 = 0.01103 | 1096.81 ± 0.34 | 1485.1 ± 1.2
a1 = 0.01653 | 1097.61 ± 0.34 | 1485.5 ± 1.2
a1 = 0.02222 | 1098.43 ± 0.34 | 1486 ± 1.2
a1 = 0.02764 | 1099.21 ± 0.34 | 1486.3 ± 1.2
a1 = 0.03328 | 1100.03 ± 0.34 | 1486.7 ± 1.2
a1 = 0.03812 | 1100.72 ± 0.34 | 1487.1 ± 1.2
a1 = 0.04374 | 1101.53 ± 0.34 | 1487.4 ± 1.2
a1 = 0.04953 | 1102.36 ± 0.34 | 1487.8 ± 1.2
a1 = 0.05501 | 1103.13 ± 0.34 | 1488.2 ± 1.2

[Cl][Ni][Cl] [nickel chloride (NiCl2)] + CC(=O)N(C)C
Details | mass density [kg/m3] | speed of sound [m/s]
a1 = 0.019 | 938.196 ± 0.25 | 1457 ± 1.2
a1 = 0.03382 | 939.871 ± 0.25 | 1458 ± 1.2
a1 = 0.05743 | 942.54 ± 0.25 | 1459.5 ± 1.2
a1 = 0.07634 | 944.678 ± 0.25 | 1460.8 ± 1.2
a1 = 0.09563 | 946.859 ± 0.25 | 1462 ± 1.2
a1 = 0.114 | 948.937 ± 0.25 | 1463.3 ± 1.2
a1 = 0.1327 | 951.046 ± 0.25 | 1464.5 ± 1.2
a1 = 0.1513 | 953.148 ± 0.25 | 1465.8 ± 1.2

[Cl-].[Cl-].[Zn+2] [zinc chloride] + CC(=O)N(C)C
Details | mass density [kg/m3] | speed of sound [m/s]
a1 = 0.05996 | 942.244 ± 0.25 | 1456.9 ± 1.2
a1 = 0.1117 | 947.615 ± 0.25 | 1457.9 ± 1.2
a1 = 0.1487 | 951.455 ± 0.24 | 1458.7 ± 1.2
a1 = 0.1875 | 955.473 ± 0.24 | 1459.5 ± 1.2
a1 = 0.223 | 959.152 ± 0.24 | 1460.3 ± 1.2
a1 = 0.2595 | 962.944 ± 0.24 | 1461.2 ± 1.2
a1 = 0.2955 | 966.681 ± 0.24 | 1462.1 ± 1.2
a1 = 0.3148 | 968.679 ± 0.24 | 1462.5 ± 1.2

— the NIST ThermoML archive (doi:10.1021/je8004134)
